Tests used:
Test in all cases: relative viability (nuclei count vs DMSO), 5 days (fraction); higher = more cells survive
[1] = compound: C1CCC(CC1)N(CCNCCC2=C3C(=C(C=C2)O)NC(=O)CO3)C(=O)CCNCCC4=CC(=C(C=C4)Cl)Cl [AZ505] + O=C(c1cc(Cc2n[nH]c(=O)c3ccccc23)ccc1F)N1CCN(C(=O)C2CC2)CC1 [Olaparib] (partner 8 µM)
In short: (§1)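 Lung cancer cell lines were pin-tool dosed in 1536-well plates on the day after seeding, with either a lone drug or a fixed anchor-drug dose plus five library-drug doses (not always all listed) in √10 steps. Nuclei were counted on 4× images after 5 days. Relative viability is the ratio of treated-well to vehicle-well nuclei counts, with each value a median of duplicate plates.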

[2] = compound: Cn1c(=O)n(-c2ccc(C(C)(C)C#N)cc2)c2c3cc(-c4cnc5ccccc5c4)ccc3ncc21 [Dactolisib] + Cc1cc(Nc2cc(N3CCN(C)CC3)nc(Sc3ccc(NC(=O)C4CC4)cc3)n2)n[nH]1 [Tozasertib] (partner 0.1 µM)
In short: as §1

[3] = compound: Cn1c(=O)n(-c2ccc(C(C)(C)C#N)cc2)c2c3cc(-c4cnc5ccccc5c4)ccc3ncc21 [Dactolisib] + Nc1ncn([C@H]2C[C@H](O)[C@@H](CO)O2)c(=O)n1 [Decitabine] (partner 2 µM)
In short: as §1

[4] = compound: C1CCC(CC1)N(CCNCCC2=C3C(=C(C=C2)O)NC(=O)CO3)C(=O)CCNCCC4=CC(=C(C=C4)Cl)Cl [AZ505] + CS(=O)(=O)CCNCc1ccc(-c2ccc3ncnc(Nc4ccc(OCc5cccc(F)c5)c(Cl)c4)c3c2)o1 [Lapatinib] (partner 2 µM)
In short: as §1

Cell Line	relative viability ([1]; first compound 0.08 µM)	relative viability ([1]; first compound 0.253 µM)	relative viability ([1]; first compound 0.8 µM)	relative viability ([1]; first compound 2.53 µM)	relative viability ([1]; first compound 8 µM)	relative viability ([2]; first compound 0.002 µM)	relative viability ([2]; first compound 0.006325 µM)	relative viability ([2]; first compound 0.02 µM)	relative viability ([2]; first compound 0.06325 µM)	relative viability ([2]; first compound 0.2 µM)	relative viability ([3]; first compound 0.002 µM)	relative viability ([3]; first compound 0.006325 µM)	relative viability ([3]; first compound 0.02 µM)	relative viability ([3]; first compound 0.06325 µM)	relative viability ([3]; first compound 0.2 µM)	relative viability ([4]; first compound 0.08 µM)	relative viability ([4]; first compound 0.253 µM)	relative viability ([4]; first compound 0.8 µM)	relative viability ([4]; first compound 2.53 µM)	relative viability ([4]; first compound 8 µM)
201T	0.851	0.857	0.82	0.862	0.846	0.936	0.965	0.98	0.879	0.474	0.87	0.864	0.808	0.706	0.477	1	1.04	0.957	1.04	1.01
A549	0.315	0.362	0.358	0.415	0.296	–	–	–	–	–	0.34	0.292	0.248	0.204	0.12	0.916	0.931	0.966	0.929	0.955
A-427	0.765	0.704	0.724	0.721	0.732	0.201	0.192	0.253	0.208	0.187	0.605	0.571	0.609	0.457	0.436	1.1	1.07	0.961	1.03	0.998
ABC-1	0.688	–	0.841	0.807	1.2	0.188	0.176	0.165	0.166	0.19	1.22	1.02	1.13	0.999	0.827	–	1.1	1.11	1.12	1.23
BEN	0.998	1.04	1.04	1.04	1.21	0.525	0.553	0.53	0.49	0.42	0.802	0.692	0.63	0.518	0.41	0.645	0.69	0.728	0.718	1.02
CAL-12T	0.588	0.777	0.736	0.706	0.696	0.288	0.296	0.241	0.163	0.121	–	–	–	–	–	0.637	0.534	0.537	0.625	0.728
COR-L23	0.282	0.344	0.32	0.374	0.38	0.273	0.243	0.257	0.149	0.147	0.605	0.445	0.32	0.23	0.182	0.873	0.987	0.878	0.82	0.74
COR-L 105	0.405	0.657	0.698	0.715	0.554	0.413	0.401	0.35	0.361	0.289	0.578	0.629	0.598	0.395	0.326	0.344	0.302	0.349	0.339	0.372
Calu-6	0.543	0.59	0.525	0.504	0.608	–	–	–	–	–	–	–	–	–	–	0.925	1.17	1.07	1.02	1.11
ChaGo-K-1	0.404	0.439	0.431	0.402	0.469	0.248	0.235	0.221	0.223	0.211	0.558	0.541	0.51	0.527	0.501	–	–	–	–	–
EBC-1	0.644	0.693	0.673	0.69	0.642	–	–	–	–	–	–	–	–	–	–	0.267	0.243	0.194	0.19	0.219
EKVX	–	0.895	0.764	0.874	0.916	0.426	0.366	0.423	0.242	0.179	0.343	0.313	0.284	0.272	0.22	0.225	0.184	0.175	0.185	0.214
EMC-BAC-2	0.453	0.541	0.487	0.524	0.437	0.266	0.271	0.334	0.287	0.273	1.01	0.861	0.888	0.54	0.551	0.819	0.905	0.814	0.837	0.904
EPLC-272H	0.638	0.664	0.654	0.782	0.628	0.348	0.221	0.243	0.207	0.193	0.36	0.364	0.317	0.281	0.23	0.785	0.817	0.867	0.871	0.956
H3255	0.55	0.564	0.569	0.601	0.597	0.525	0.521	0.682	0.51	0.432	0.671	0.614	0.559	0.511	0.415	0.249	0.235	0.268	0.283	0.247
HARA	0.451	–	0.734	0.631	0.761	0.103	0.116	0.103	0.112	0.0818	0.708	0.558	0.634	0.623	0.356	0.636	0.501	0.651	0.802	0.681
HCC-15	0.639	0.723	0.75	0.73	0.736	0.388	0.386	0.449	0.326	0.215	0.626	0.599	0.617	0.33	0.208	0.741	0.809	0.861	0.805	0.871

Cell Line	relative viability ([1]; first compound 0.08 µM)	relative viability ([1]; first compound 0.253 µM)	relative viability ([1]; first compound 0.8 µM)	relative viability ([1]; first compound 2.53 µM)	relative viability ([1]; first compound 8 µM)	relative viability ([2]; first compound 0.002 µM)	relative viability ([2]; first compound 0.006325 µM)	relative viability ([2]; first compound 0.02 µM)	relative viability ([2]; first compound 0.06325 µM)	relative viability ([2]; first compound 0.2 µM)	relative viability ([3]; first compound 0.002 µM)	relative viability ([3]; first compound 0.006325 µM)	relative viability ([3]; first compound 0.02 µM)	relative viability ([3]; first compound 0.06325 µM)	relative viability ([3]; first compound 0.2 µM)	relative viability ([4]; first compound 0.08 µM)	relative viability ([4]; first compound 0.253 µM)	relative viability ([4]; first compound 0.8 µM)	relative viability ([4]; first compound 2.53 µM)	relative viability ([4]; first compound 8 µM)
HCC-44	0.928	1.01	1.02	1	1.05	0.826	0.899	0.855	0.341	0.297	1.04	0.976	0.937	0.944	0.878	0.926	1.09	0.974	1.11	1.06
HCC-78	–	–	0.878	0.829	1.03	0.457	0.418	0.414	0.361	0.284	0.834	0.854	0.619	0.612	0.455	–	0.643	0.645	1.2	0.86
HCC-366	0.277	0.439	0.315	0.412	0.406	0.11	0.101	0.0652	0.0776	0.0308	0.376	0.338	0.256	0.28	0.133	1.01	1.01	0.903	0.986	1.06
IA-LM	0.78	0.846	0.807	0.902	0.889	–	–	–	–	–	–	–	–	–	–	0.629	0.935	0.912	0.656	0.884
LCLC-103H	0.677	0.729	0.729	0.734	0.717	0.492	0.481	0.451	0.379	0.286	0.678	0.677	0.592	0.458	0.433	–	–	–	–	–
NCI-H441	0.527	0.503	0.586	0.57	0.621	0.831	0.632	0.522	0.384	0.284	0.285	0.256	0.31	0.233	0.203	–	–	–	–	–
NCI-H522	0.607	0.645	0.698	0.698	0.685	0.625	0.575	0.542	0.521	0.385	0.797	0.723	0.751	0.62	0.533	–	–	–	–	–
NCI-H1299	0.897	0.925	0.932	0.885	0.876	–	–	–	–	–	–	–	–	–	–	0.918	1.05	0.923	0.897	0.978
NCI-H1563	–	–	–	–	–	–	–	–	–	–	–	–	–	–	–	0.836	0.882	0.998	0.865	0.905
NCI-H1623	–	–	–	–	–	0.396	0.414	0.428	0.37	0.298	–	–	–	–	–	–	–	–	–	–
NCI-H1648	–	0.794	0.795	0.754	1.38	0.407	0.433	0.446	0.24	0.218	0.478	0.476	0.595	0.452	0.343	–	–	–	–	–
NCI-H1703	0.319	0.502	0.438	0.411	0.656	–	–	–	–	–	–	–	–	–	–	1	1.26	1.03	1.2	1.28
NCI-H1792	0.432	0.447	0.404	0.517	0.321	–	–	–	–	–	0.56	0.429	0.414	0.186	0.121	0.822	0.846	0.861	0.852	0.99
NCI-H2228	0.669	0.627	0.524	0.863	0.481	0.256	0.294	0.191	0.112	0.0991	–	–	–	–	–	1.09	0.957	0.939	0.885	1.11
NCI-H2342	0.428	0.463	0.491	0.485	0.488	0.475	0.496	0.435	0.502	0.362	0.726	0.689	0.677	0.58	0.501	–	–	–	–	–
SW 900	0.853	0.775	0.86	0.932	0.987	0.633	0.669	0.511	0.426	0.36	0.546	0.443	0.405	0.409	0.425	–	–	–	–	–
